Measurements as given in patent publication US20150165029A1, “THERAPEUTIC COMPOSITIONS” (CUBIST PHARMACEUTICALS, INC., priority 2005, published 2015).
Read-outs that look alike come from different tables or passages of the source.

What was measured:
[1] = Rat intraduodenal capsule model, % bioavailability; conditions: for Drug plus enhancer % BA: 4:1 (enhancer:drug), ceftriaxone/carrageenan complex+Laureth-12, daptomycin carrageenan complex+Ceteth-15, CMPD 1+Ceteth-15, cidofovir, meropenem, caspofungin+Ceteth-12; for bioavailability: male, Sprague Dawley, rat, plasma
Protocol: (§1) Male Sprague Dawley rats weighing approximately 250 g with free access to water were fasted overnight. These rats were anesthetized with 40 mg/kg pentobarbital via jugular vein catheter. The small intestine was exposed by a ventral midline incision. A small incision was made into the duodenum and a #9el capsule was inserted into the lumen of the small intestine. The duodenum and the midline incisions were sutured closed. The rats regained consciousness in 30-90 minutes. Blood samples were taken from the jugular vein catheter at 0, 15, 30 and 60 minutes and 2, 3, 4 and 6 hours. Food was returned at 1 hour post surgery. Blood samples were collected in heparinized tubes and subsequently centrifuged. The plasma was stored at −20 C in heparinized tubes. The rats regained consciousness in 30-90 minutes. After the 6 hr blood sample, the rat was euthanized and a necropsy was performed to determine accuracy and integrity of the surgery. The duodenum was examined for blockage, leakage and any evidence of inflammation or irritation at the site of the capsule implantation.

[2] = without any absorption enhancer; cited from earlier work
[3] = Rat intraduodenal capsule model, Cmax with different enhancers (Example 6); conditions: ID in rats, Cmax normalized to 40 mg/Kg
Protocol: Male Sprague Dawley rats weighing approximately 250 g with free access to water were fasted overnight. These rats were anesthetized with 40 mg/kg pentobarbital via jugular vein catheter. The small intestine was exposed by a ventral midline incision. A small incision was made into the duodenum and a #9el capsule was inserted into the lumen of the small intestine. The duodenum and the midline incisions were sutured closed. The rats regained consciousness in 30-90 minutes. Blood samples were taken from the jugular vein catheter at 0, 15, 30 and 60 minutes and 2, 3, 4 and 6 hours. Food was returned at 1 hour post surgery. Blood samples were collected in heparinized tubes and subsequently centrifuged. The plasma was stored at −20 C in heparinized tubes. […] After the 6 hr blood sample, the rat was euthanized and a necropsy was performed to determine accuracy and integrity of the surgery. The duodenum was examined for blockage, leakage and any evidence of inflammation or irritation at the site of the capsule implantation.
In each instance, the compositions were administered ID in 3 rats, unless otherwise indicated.

[4] = rat, in vivo; cited from earlier work
[5] = rat, in vivo
Protocol: as §1

| Compound | Drug plus enhancer % BA ([1]; ID, rats) | bioavailability [1] | % bioavailability [5] | further results |
| --- | --- | --- | --- | --- |
| CO/N=C(\C(=O)N[C@@H]1C(=O)N2C(C(=O)O)=C(CSc3nc(=O)c(=O)[nH]n3C)CS[C@H]12)c1csc(N)n1 [Ceftriaxone, ceftriaxone] | 83^2% |  |  | Drug only % BA ([1]; without POE alkyl ether enhancer, ID, rats): 2%; oral bioavailability [2]: 0-5% |
| CN(/N=C/C1=C(C(=O)O)N2C(=O)C(NC(=O)/C(=N\OCF)c3nsc(N)n3)[C@H]2SC1)C(=N)N1CCNCC1 (stereo partly shown) [CMPD 1, 7-(((5-amino-1,2,4-thiadiazol-3-yl)-(Z)-(fluoromethoxyimino)acetyl)amino)-3(E)-((imino-1-piperazinylmethyl)-methylhydrazono)methyl-3-cephem-4-carboxylic acid] | 30% |  |  | Cmax Mean (±SD) ([3]; enhancer Capmul C10, enhancer:drug 4:1): 7 (7) μg/mL; Cmax Mean (±SD) ([3]; enhancer Gelmul 90, enhancer:drug 4:1): 13 (8) μg/mL; Cmax Mean (±SD) ([3]; enhancer Laureth-12, enhancer:drug 4:1): 22 (4) μg/mL; Cmax Mean (±SD) ([3]; enhancer Sodium Laurate, enhancer:drug 4:1): 7 (1) μg/mL |
| C[C@@H](O)[C@H]1C(=O)N2C(C(=O)O)=C(S[C@@H]3CN[C@H](C(=O)N(C)C)C3)[C@H](C)[C@H]12 [Meropenem, meropenem] | 28% | 1% |  |  |
| CC[C@H](C)C[C@H](C)CCCCCCCCC(=O)N[C@H]1C[C@@H](O)[C@@H](NCCN)NC(=O)[C@@H]2[C@@H](O)CCN2C(=O)[C@H]([C@H](O)CCN)NC(=O)[C@H]([C@H](O)[C@@H](O)c2ccc(O)cc2)NC(=O)[C@@H]2C[C@@H](O)CN2C(=O)[C@H]([C@@H](C)O)NC1=O [Caspofungin, caspofungin] | <5% | < 1% |  |  |
| CCCCCCCCCC(=O)N[C@@H](Cc1c[nH]c2ccccc12)C(=O)N[C@H](CC(N)=O)C(=O)N[C@@H](CC(=O)O)C(=O)N[C@@H]1C(=O)NCC(=O)N[C@@H](CCCN)C(=O)N[C@@H](CC(=O)O)C(=O)N[C@H](C)C(=O)N[C@@H](CC(=O)O)C(=O)NCC(=O)N[C@H](CO)C(=O)N[C@@H]([C@H](C)CC(=O)O)C(=O)N[C@@H](CC(=O)c2ccccc2N)C(=O)O[C@@H]1C [Daptomycin, daptomycin, reference compound] |  |  |  | oral bioavailability of drug only (footnote) [4]: poor oral bioavailability; Drug plus enhancer % BA [5]: 44^2% |
| Beheneth-20 |  |  | 7 (5) % |  |
| Laureth-9 |  |  | 60 (19) % |  |
| Laureth-23 |  |  | 10 (4) % |  |
| Nc1ccn(C[C@@H](CO)OCP(=O)(O)O)c(=O)n1 [Cidofovir, cidofovir] | 44% | 2% |  |  |
